Measurements reported in patent publication US10858323B2, “HDAC inhibitors for the treatment of diabetic peripheral neuropathy” (REGENACY PHARMACEUTICALS, LLC, priority 2015, dated 2020).

Columns and labels:
[1] = system: primary rat dorsal root ganglion (DRG) neurons; assay: Mitochondrial axonal transport live imaging under high glucose; format: cell-based; conditions: 200 mM glucose and 500 nM compound, 24 h
Method: To investigate the effects of hyperglycemia on axonal transport live imaging was used to measure mitochondrial transport in primary rat dorsal root ganglion cells. Primary rat dorsal root ganglion (DRG) neurons (Lonza) were cultured for 5-7 days according to the vendor's protocol. The day before the imaging session cells were infected using CellLight Mitochondria-GFP (BacMam 2.0-based reagent, ThermoFisher Scientific) to fluorescently label mitochondria. […] Media in control wells was replaced with fresh media containing 25 mM glucose (control). Cells were allowed to incubate under these conditions for 24 h. […] Imaging was performed using Zeiss 3i system (Intelligent Imaging Innovations) in temperate controlled environment (37 C). Mitochondria were visualized using FITC filter. Time lapse images were acquired every 2 seconds over the course of 2 min and analyzed using Fiji (ImageJ). MtrackJ plugin was used to manually track mitochondrial movements and calculate parameters such as total distance traveled by each mitochondria. Total distance traveled by a population of mitochondria in each condition was plotted as a cumulative frequency plot. Data presented is a pool of 5 independent experiments.

[2] = system: streptozotocin-induced diabetic rats (STZ rats); assay: Von Frey test of tactile allodynia in STZ diabetic rats; format: in vivo, rat; conditions: for tactile allodynia / pain threshold (von Frey): STZ rats, oral dosing days 11-21
Method: Diabetes was induced in male SD rats by IV dosing of STZ (60 mg/kg) on […]. Blood glucose level (BGL) of above 300 mg/dl was observed on study day 3, following STZ dosing, which maintained throughout the study period.
Gabapentin (150 mg/kg) was used as a positive control. Tactile allodynia was measured on the indicated days during dosing and once on day 24, three days after dosing was stopped. Vehicle treated animals experienced low mechanical threshold throughout the treatment period (days 11-21) and also 3 days after the last dose (day 24).

[3] = Blood brain barrier penetration; conditions: in vivo
[4] = system: Dorsal root ganglion neurons (DRGNs); assay: Tubulin and histone acetylation by western blot of whole cell extracts; format: cell-based, rat; conditions: 24 hours treatment
[5] = system: Dorsal root ganglion neurons (DRGNs); assay: Acetyl-tubulin fluorescent ICC of axonal microtubules; format: cell-based, rat
Method: DRGNs were treated with Compound 2 on coverslips, fixed and stained with antibodies against acetyl-tubulin and total tubulin (fluorescent ICC) to visualize and quantitate tubulin acetylation in axonal microtubules. […] Acetyl-tubulin signal was normalized to total tubulin signal.

Rats = assay: Tail Flick test; format: in vivo, rat; conditions: BID for 4 days or single dose 1 h before test
Method: A Tail Flick test was performed every hour in a time period of four hours after treatments.
Data are presented in FIG. 4 as the latency time in seconds until the animals flicked their tails in response to the heat source. Morphine and Gabapentin were used as positive controls.

[6] = system: streptozotocin hyperglycemic rats, dorsal root ganglia and sciatic nerves; assay: Metabolomic study in diabetic neuropathic pain model; format: in vivo, rat; conditions: 10 mg/kg twice per day, 11 days
Method: Hyperglycemia was induced in rats with an injection of streptozotocin (60 mg/kg). Ten days later neuropathic pain was confirmed using a von Frey filament test for tactile allodynia. In this test, filaments of increasing diameter were applied to the plantar surface of the rear paw and the force necessary to precipitate a paw withdrawal is determined by the smallest filament needed to invoke a response. […] In addition, three naïve rats and three rats that had tactile allodynia at day 10 were sacrificed and the dorsal root ganglia and sciatic nerves were dissected and frozen as control samples.
Dorsal root ganglia and sciatic nerves were sent to Human Metabolome Technologies for analysis of metabolic intermediates. Extracts from these samples were analyzed by capillary electrophoresis/mass spectrometry to measure the level of charged metabolites. In addition, sciatic nerve extracts were analyzed by liquid chromatography/mass spectrometry to measure the level of non-charged metabolites.

HDAC1 = HDAC1 (Homo sapiens (Human), UniProt Q13547); assay: HDAC enzyme assay (HDAC1); format: biochemical
HDAC3 = HDAC3 (Homo sapiens (Human), UniProt O15379); assay: HDAC enzyme assay (HDAC3); format: biochemical
HDAC6 = HDAC6 (Homo sapiens (Human), UniProt Q9UBN7); assay: HDAC enzyme assay (HDAC6); format: biochemical
HDAC2 = HDAC2 (Homo sapiens (Human), UniProt Q92769); assay: HDAC enzyme assay (HDAC2); conditions: read-out: HDAC2 IC50
HDAC2, sequence (Q92769 whole entry): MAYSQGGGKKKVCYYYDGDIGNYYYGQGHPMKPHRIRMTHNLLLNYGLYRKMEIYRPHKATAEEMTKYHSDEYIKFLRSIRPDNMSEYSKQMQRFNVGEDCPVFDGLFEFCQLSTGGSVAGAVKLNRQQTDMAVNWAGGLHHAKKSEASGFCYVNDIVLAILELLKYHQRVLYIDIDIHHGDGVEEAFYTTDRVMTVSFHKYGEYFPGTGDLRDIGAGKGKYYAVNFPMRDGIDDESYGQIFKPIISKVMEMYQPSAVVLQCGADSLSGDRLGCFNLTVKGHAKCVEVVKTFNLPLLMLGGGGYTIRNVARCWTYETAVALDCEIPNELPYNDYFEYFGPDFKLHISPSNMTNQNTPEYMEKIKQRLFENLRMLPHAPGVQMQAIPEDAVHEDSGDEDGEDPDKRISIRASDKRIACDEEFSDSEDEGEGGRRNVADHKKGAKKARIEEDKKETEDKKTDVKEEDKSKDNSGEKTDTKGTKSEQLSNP

HDAC3, sequence (O15379 whole entry): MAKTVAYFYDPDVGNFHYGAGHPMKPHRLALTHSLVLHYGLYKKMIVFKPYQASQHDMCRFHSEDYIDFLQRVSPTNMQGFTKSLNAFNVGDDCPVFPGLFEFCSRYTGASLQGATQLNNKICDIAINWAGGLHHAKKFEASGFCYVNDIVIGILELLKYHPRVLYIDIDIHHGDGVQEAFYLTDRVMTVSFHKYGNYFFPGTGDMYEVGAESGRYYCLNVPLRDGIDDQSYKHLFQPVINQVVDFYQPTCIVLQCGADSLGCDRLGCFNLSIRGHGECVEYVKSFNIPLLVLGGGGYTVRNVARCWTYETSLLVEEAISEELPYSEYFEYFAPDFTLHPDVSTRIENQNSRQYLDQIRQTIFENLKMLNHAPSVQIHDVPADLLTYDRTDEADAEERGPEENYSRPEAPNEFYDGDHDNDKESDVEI
HDAC3, sequence (Q9Y618 395-489 partner): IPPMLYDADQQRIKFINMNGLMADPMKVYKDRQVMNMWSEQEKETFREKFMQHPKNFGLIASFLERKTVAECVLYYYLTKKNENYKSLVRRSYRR
HDAC6, sequence (Q9UBN7 whole entry): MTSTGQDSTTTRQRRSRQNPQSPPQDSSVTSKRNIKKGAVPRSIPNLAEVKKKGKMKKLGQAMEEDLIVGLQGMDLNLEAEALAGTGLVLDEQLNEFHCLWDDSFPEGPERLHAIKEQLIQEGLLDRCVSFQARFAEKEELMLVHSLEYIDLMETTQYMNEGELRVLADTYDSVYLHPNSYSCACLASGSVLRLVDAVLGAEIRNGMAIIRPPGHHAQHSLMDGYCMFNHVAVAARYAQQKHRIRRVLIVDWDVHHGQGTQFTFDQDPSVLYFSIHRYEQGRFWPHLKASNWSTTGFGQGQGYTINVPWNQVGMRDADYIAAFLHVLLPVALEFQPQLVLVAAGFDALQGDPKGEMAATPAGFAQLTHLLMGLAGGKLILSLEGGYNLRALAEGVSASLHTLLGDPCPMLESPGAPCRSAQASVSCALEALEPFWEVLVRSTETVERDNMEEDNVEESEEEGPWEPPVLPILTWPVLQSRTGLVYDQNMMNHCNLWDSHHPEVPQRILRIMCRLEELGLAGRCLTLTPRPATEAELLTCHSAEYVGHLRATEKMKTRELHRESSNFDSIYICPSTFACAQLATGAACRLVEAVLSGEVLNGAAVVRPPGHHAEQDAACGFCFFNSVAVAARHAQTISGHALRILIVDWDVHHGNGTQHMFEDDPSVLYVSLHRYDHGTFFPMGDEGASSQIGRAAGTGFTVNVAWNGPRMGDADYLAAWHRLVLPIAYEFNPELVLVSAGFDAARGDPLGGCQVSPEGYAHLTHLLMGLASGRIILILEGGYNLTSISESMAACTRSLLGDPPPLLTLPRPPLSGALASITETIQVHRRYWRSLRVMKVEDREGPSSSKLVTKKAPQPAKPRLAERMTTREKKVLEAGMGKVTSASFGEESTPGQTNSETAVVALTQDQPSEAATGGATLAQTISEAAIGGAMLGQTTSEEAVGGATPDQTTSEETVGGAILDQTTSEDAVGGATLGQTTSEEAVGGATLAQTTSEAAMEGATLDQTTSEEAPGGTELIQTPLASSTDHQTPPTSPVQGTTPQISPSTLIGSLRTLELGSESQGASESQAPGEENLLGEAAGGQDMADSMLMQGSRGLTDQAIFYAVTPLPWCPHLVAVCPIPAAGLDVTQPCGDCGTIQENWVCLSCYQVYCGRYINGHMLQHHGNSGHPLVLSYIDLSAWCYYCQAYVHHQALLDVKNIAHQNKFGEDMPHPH
HDAC1, sequence (Q13547 whole entry): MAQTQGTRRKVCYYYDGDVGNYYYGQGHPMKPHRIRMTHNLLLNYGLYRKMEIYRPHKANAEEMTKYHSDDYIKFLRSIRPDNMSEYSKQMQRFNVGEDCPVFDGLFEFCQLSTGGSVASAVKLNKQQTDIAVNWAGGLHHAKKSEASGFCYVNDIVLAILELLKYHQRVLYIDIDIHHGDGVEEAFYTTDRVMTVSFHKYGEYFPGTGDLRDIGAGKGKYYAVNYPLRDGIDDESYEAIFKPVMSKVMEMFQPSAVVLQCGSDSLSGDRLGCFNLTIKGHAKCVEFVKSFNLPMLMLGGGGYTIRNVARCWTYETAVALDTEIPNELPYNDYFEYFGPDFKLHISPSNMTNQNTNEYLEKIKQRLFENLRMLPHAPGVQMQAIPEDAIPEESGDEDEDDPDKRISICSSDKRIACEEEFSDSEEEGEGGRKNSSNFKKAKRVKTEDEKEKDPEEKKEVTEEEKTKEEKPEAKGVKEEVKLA

Row | IC50 (HDAC1) [µM] | IC50 (HDAC3) [µM] | IC50 (HDAC6) [µM] | IC50 (HDAC2) [µM] | Compound | mitochondrial movement (total distance traveled) [1] | tactile allodynia / pain threshold (von Frey) [2] | blood brain barrier penetration [3] | histone acetylation (western blot) ([4]; at up to 1 uM) | tubulin acetylation (western blot) ([4]; whole cell extracts) | acetylation of axonal microtubules (acetyl-tubulin normalized to total tubulin) [5] | increase of latency time in Tail Flick test vs vehicle control (Rats) | persistence of effect on pain threshold after drug withdrawal ([2]; day 24, three days after dosing was stopped) | metabolic changes incl. acyl-carnitines (AC 16:2, AC 18:2) [6]
1 | – | – | – | – | O=C(CCCCCCNC(=O)c1cnc(N(c2ccccc2)c2ccccc2)nc1)NO [Compound 2, 2-(diphenylamino)-N-(7-(hydroxyamino)-7-oxoheptyl)pyrimidine-5-carboxamide] | restores normal pattern of mitochondrial movement | reversed tactile allodynia in STZ rats in a dose dependent manner and restored the pain threshold in these rats to almost normal levels | does not penetrate the blood brain barrier very well | Minimal histone acetylation increase | induced an increase in tubulin acetylation in a dose-dependent matter | increases acetylation of axonal microtubules | not effective (except in the group that received Compound 2 at 30 mg/kg BID for 4 days) | – | –
2 | – | – | – | – | O=C(NO)c1cnc(NC2(c3ccccc3)CC2)nc1 [Compound 1, N-hydroxy-2-((1-phenylcyclopropyl)amino)pyrimidine-5-carboxamide] | – | reversed tactile allodynia in STZ rats in a dose dependent manner and restored the pain threshold in these rats to almost normal levels | penetrates the blood brain barrier | – | – | – | not effective | persisted even after the drug was withdrawn | normalized many of the metabolic changes, including the changes in acyl-carnitines
3 | 0.068 | 0.105 | 0.002 | 0.082 | COc1ccc(C(F)(F)F)cc1CNc1ncc(C(=O)NO)cn1 [Compound 3, N-hydroxy-2-((2-methoxy-5-(trifluoromethyl)benzyl)amino)pyrimidine-5-carboxamide] | – | reversed tactile allodynia in STZ rats in a dose dependent manner and restored the pain threshold in these rats to almost normal levels | – | – | – | – | – | – | –
